Assay results: ChEMBL document CHEMBL4616600, “Synthesis and cytotoxic evaluation of halogenated α-exo-methylene-lactones” (Bioorg Med Chem, 2020)

Key:
[1] = Antiproliferative activity against human H1975-1 harboring EGFR L858R/T790M mutant measured after 72 hrs by sulforhodamine B assay; format: functional
A-431 = experiment: Antiproliferative activity against human A431 wild type cells measured after 72 hrs by Sulforhodamine B assay; format: functional, cell-based; details: A-431, 72 h
HCC827 = experiment: Antiproliferative activity against human HCC827 cells measured after 72 hrs by sulforhodamine B assay; format: functional, cell-based; details: HCC827, 72 h
A549 = experiment: Antiproliferative activity against human A549 cells measured after 72 hrs by sulforhodamine B assay; format: functional, cell-based; details: A549, 72 h
L02 = experiment: Cytotoxicity against human HL7702 cells measured after 72 hrs by sulforhodamine B assay; format: cell-based; details: L02, 72 h
[2] = biological target: Epidermal growth factor receptor (Homo sapiens, UniProt P00533, L858R/T790M); experiment: Inhibition of EGFR L858R/T790M (unknown origin)
Sequence of Epidermal growth factor receptor (Homo sapiens, UniProt P00533, L858R/T790M) (P00533 25-1210 T790M/L858R limits assumed): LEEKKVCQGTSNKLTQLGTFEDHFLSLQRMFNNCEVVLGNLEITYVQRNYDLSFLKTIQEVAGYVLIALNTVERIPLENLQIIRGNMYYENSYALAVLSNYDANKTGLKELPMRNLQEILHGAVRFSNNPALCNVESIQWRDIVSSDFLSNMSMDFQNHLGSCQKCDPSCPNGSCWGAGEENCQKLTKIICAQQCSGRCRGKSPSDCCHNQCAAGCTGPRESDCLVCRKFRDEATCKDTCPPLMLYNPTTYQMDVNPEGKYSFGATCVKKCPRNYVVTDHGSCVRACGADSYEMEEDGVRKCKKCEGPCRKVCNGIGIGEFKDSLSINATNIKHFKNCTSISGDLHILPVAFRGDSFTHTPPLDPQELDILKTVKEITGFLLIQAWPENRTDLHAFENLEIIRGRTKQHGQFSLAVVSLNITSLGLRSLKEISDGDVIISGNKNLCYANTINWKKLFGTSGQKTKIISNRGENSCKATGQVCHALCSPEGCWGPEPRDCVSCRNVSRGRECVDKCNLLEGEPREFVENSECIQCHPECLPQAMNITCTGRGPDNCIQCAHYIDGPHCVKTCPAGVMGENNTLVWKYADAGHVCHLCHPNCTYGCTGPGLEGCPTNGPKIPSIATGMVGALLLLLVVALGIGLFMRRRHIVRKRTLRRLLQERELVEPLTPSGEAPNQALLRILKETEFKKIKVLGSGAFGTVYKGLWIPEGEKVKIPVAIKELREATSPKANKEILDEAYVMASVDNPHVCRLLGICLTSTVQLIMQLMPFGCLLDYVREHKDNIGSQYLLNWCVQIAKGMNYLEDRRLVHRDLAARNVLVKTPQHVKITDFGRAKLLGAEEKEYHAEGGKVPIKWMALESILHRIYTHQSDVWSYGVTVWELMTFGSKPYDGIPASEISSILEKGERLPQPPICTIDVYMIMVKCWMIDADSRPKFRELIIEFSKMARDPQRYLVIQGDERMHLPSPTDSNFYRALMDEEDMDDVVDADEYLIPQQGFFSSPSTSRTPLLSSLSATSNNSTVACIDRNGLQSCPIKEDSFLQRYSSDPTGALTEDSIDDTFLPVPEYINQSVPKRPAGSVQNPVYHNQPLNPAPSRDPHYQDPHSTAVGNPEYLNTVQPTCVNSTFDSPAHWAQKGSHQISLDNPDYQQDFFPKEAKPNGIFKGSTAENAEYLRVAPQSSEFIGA

[3] = biological target: Epidermal growth factor receptor (Homo sapiens, UniProt P00533); experiment: Inhibition of wild type EGFR (unknown origin)
Sequence of Epidermal growth factor receptor (Homo sapiens, UniProt P00533) (P00533 whole entry): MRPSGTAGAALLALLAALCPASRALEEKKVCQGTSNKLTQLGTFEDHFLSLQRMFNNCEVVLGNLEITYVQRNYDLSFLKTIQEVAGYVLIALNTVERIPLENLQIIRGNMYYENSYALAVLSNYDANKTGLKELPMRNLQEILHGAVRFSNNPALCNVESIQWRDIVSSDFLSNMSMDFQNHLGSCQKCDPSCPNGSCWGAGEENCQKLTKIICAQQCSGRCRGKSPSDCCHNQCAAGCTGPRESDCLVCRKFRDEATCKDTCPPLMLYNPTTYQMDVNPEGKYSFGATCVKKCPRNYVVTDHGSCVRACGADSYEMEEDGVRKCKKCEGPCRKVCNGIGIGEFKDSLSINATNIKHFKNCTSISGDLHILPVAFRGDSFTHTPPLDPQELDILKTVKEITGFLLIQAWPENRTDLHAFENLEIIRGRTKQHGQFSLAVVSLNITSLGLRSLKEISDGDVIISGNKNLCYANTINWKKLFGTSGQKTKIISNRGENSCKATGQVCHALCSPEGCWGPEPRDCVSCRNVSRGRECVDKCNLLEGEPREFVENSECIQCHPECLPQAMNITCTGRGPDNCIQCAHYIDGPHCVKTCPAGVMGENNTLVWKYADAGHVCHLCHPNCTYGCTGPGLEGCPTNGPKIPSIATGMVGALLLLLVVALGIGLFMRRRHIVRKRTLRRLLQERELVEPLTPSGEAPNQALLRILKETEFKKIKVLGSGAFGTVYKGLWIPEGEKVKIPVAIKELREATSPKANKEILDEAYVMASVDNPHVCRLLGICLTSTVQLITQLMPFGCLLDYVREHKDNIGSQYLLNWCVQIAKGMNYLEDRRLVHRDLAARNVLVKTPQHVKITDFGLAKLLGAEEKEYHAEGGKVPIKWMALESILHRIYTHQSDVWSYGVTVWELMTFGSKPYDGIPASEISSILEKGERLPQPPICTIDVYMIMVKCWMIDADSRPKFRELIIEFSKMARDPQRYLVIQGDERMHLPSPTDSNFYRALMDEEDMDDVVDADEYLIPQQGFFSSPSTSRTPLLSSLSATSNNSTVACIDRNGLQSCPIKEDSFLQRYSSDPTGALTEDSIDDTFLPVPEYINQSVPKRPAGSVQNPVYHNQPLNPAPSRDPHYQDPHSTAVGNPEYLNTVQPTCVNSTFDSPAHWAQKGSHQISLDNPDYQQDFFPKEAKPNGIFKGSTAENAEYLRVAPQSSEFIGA

| SMILES | IC50 [1] [µM] | IC50 (A-431) [µM] | IC50 (HCC827) [µM] | IC50 (A549) [µM] | IC50 (L02) [µM] | IC50 [2] [µM] | IC50 [3] [µM] |
| --- | --- | --- | --- | --- | --- | --- | --- |
| C=C1C[C@@](CCl)(c2ccccc2)OC1=O | 21.4 | 43 | – | – | – | – | – |
| C=C1C[C@]2(CCc3ccccc3[C@H]2Br)OC1=O | 1.22 | 4.1 | – | – | – | – | – |
| C=C1CC(c2ccccc2)(C(C)Br)OC1=O (racemic) | 1.66 | 5.24 | – | – | – | – | – |
| C=C1CC(CO)(c2ccccc2)OC1=O (racemic) | 2.26 | 4.06 | – | – | – | – | – |
| C=C1CC(CBr)(c2ccccc2)OC1=O (racemic) | 0.8 | 1.48 | – | – | – | – | – |
| C=C1C[C@]2(CCCc3ccccc3[C@H]2Br)OC1=O | 1.2 | 3.3 | – | – | – | – | – |
| C=C1CC(c2ccccc2)(C(Cl)c2ccccc2)OC1=O (racemic) | 1.26 | 2.77 | – | – | – | – | – |
| C=C1CC(CF)(c2ccccc2)OC1=O (racemic) | 13.3 | 25.1 | – | – | – | – | – |
| C=C1CC2(CCCc3ccccc3C2Br)OC1=O (racemic) | 1.08 | 1.27 | – | – | – | – | – |
| C=C1CC(CBr)(c2ccccc2OC)OC1=O (racemic) | 1.1 | 2.4 | – | – | – | – | – |
| C=C1C[C@](CBr)(c2ccccc2)OC1=O | 0.97 | 1.33 | – | – | – | – | – |
| C=C1C(=O)O[C@@H]2C3O[C@]3(C)CC/C=C(\C)CC[C@@H]12 (stereo partly drawn) | 1.43 | 2.57 | – | – | – | – | – |
| C=C1C[C@@]2(CCCc3ccccc3[C@@H]2Br)OC1=O | 1 | 2.5 | – | – | – | – | – |
| C=C1CC(C[Se]c2ccccc2)(c2ccccc2)OC1=O (racemic) | 1.3 | 1.27 | – | – | – | – | – |
| CC(=O)O[C@H]1C(=O)[C@@]2(C)[C@H]([C@H](OC(=O)c3ccccc3)[C@]3(O)C[C@H](OC(=O)[C@H](O)[C@@H](NC(=O)c4ccccc4)c4ccccc4)C(C)=C1C3(C)C)[C@]1(OC(C)=O)CO[C@@H]1C[C@@H]2O [PACLITAXEL] | 0.003 | 0.002 | – | – | – | – | – |
| C=C1C[C@]2(CCCC[C@H]2Br)OC1=O (racemic) | 4.55 | 21.2 | – | – | – | – | – |
| C=C1CC(CBr)(c2ccccc2C)OC1=O (racemic) | 3.5 | 5.5 | – | – | – | – | – |
| C=C1CC(CBr)(c2ccc(C(F)(F)F)cc2)OC1=O (racemic) | 1.94 | 1.01 | – | – | – | – | – |

| SMILES | IC50 [1] [µM] | IC50 (A-431) [µM] | IC50 (HCC827) [µM] | IC50 (A549) [µM] | IC50 (L02) [µM] | IC50 [2] [µM] | IC50 [3] [µM] |
| --- | --- | --- | --- | --- | --- | --- | --- |
| C=C1CC(CBr)(c2cccc(C)c2)OC1=O (racemic) | 1.2 | 4.5 | – | – | – | – | – |
| C=C1CC(C)(CBr)OC1=O (racemic) | 32 | 124 | – | – | – | – | – |
| C=C1CC(CBr)(c2ccc(OC)cc2)OC1=O (racemic) | 2.3 | 4.2 | – | – | – | – | – |
| C=C1C[C@](CCl)(c2ccccc2)OC1=O | 9.77 | 30.6 | – | – | – | – | – |
| C=C1CC[C@](CBr)(c2ccccc2)OC1=O | 1.33 | 10.9 | – | – | – | – | – |
| C=C1CC(CBr)(c2ccc(Cl)cc2)OC1=O (racemic) | 1.54 | 1.1 | – | – | – | – | – |
| C=C1CC(CI)(c2ccccc2)OC1=O (racemic) | 0.65 | 2.72 | 2.2 | 1.98 | 2.2 | 26 | 47 |
| C=C1CC(CBr)(c2ccccc2F)OC1=O (racemic) | 1.3 | 1.7 | – | – | – | – | – |
| C=C1CC[C@@](CBr)(c2ccccc2)OC1=O | 1.62 | 2.2 | – | – | – | – | – |
| C=C1CC(C(Br)c2ccccc2)OC1=O (racemic) | 6.2 | 20.3 | – | – | – | – | – |
| C=C1CN(S(=O)(=O)c2ccc([N+](=O)[O-])cc2)CC(CBr)(c2ccccc2)OC1=O (racemic) | 24.2 | 21.2 | – | – | – | – | – |
| C=C1CC(CI)(c2ccc(F)cc2)OC1=O (racemic) | 0.6 | 1.9 | 1.1 | 1.21 | 1.2 | 15 | 24 |
| C=C1CC(CBr)(c2ccc(F)cc2)OC1=O (racemic) | 0.6 | 0.8 | 2.3 | 1.68 | 2.4 | 30 | 64 |
| C=CC(=O)Nc1cc(Nc2nccc(-c3cn(C)c4ccccc34)n2)c(OC)cc1N(C)CCN(C)C [OSIMERTINIB] | 0.02 | […] | 0.2 | 0.14 | 0.3 | – | – |
| C=C1CC(c2ccccc2)(C(Br)c2ccccc2)OC1=O (racemic) | 0.25 | 4.19 | 1 | 1.37 | 0.96 | 14 | 29 |
| C=C1C[C@]2(Cc3ccccc3[C@H]2Br)OC1=O | 4.39 | 2.09 | – | – | – | – | – |
| C=C1CC(CBr)(c2ccc(C)cc2)OC1=O (racemic) | 1.1 | 2.2 | – | – | – | – | – |
